This is an account of results in article PMC6158578, “Optimization and Lead Selection of Benzothiazole Amide Analogs Toward a Novel Antimycobacterial Agent” (Frontiers in Microbiology, 2018).

What all share (experiment): microbe, parasite or virus in culture
Holding throughout (type): cell-based, M. tuberculosis
Holding throughout (conditions): Mycobacterium tuberculosis

In experiment [1] the test system is Fluoroquinolone-resistant Mtb.
Experiment [2] has as its system Rifampin-resistant Mtb strain 2.
The subject of experiment [3] is Isoniazid-resistant Mtb strain 2.
For experiment [4], the system named is Isoniazid-resistant Mtb strain 1.
For experiment [5], the system named is Rifampin-resistant Mtb strain 1.

SMILES strings stand for the structures. ≈ marks a conversion by molar mass, not a printed value.

For `CC12CC3CC(C)(C1)CC(C(=O)Nc1nc4ccc(OC(F)(F)F)cc4s1)(C3)C2` [CRS400226], the IC90 in experiment [1] is 3.7 µg/mL (≈ 8.72 µM); in experiment [2], 4.7 µg/mL (≈ 11.1 µM); in experiment [3], 4.2 µg/mL (≈ 9.89 µM); in experiment [4], 3.9 µg/mL (≈ 9.19 µM); in experiment [5], 3.9 µg/mL (≈ 9.19 µM).
